Source: PubChem BioAssay AID2060500 (Molecular Pharmacology Branch, DTP, NCI, 2025)

System: 596521-263-R-J1-PDC complex spheroids, viability % of control
Test: Anticancer human tumor 596521-263-R-J1-PDC patient-derived soft tissue sarcoma cell line growth inhibition [GQUAD]
Settings: for IC50: curve of first compound; for viability, T/C: stronger effect = lower value
Method in brief: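 Multi-cell-type spheroids of tumor cells with HUVEC and mesenchymal stem cells, treated with drug combinations. Concentrations descend in half-log steps from near clinical Cmax, or from 10 microM where Cmax is unknown; viability read-out.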

[1] = second compound 0.0316 µM, first compound 0.0316 µM
[2] = second compound 0.0316 µM, first compound 0.1 µM
[3] = second compound 0.0316 µM, first compound 0.316 µM
[4] = second compound 0.0316 µM, first compound 1 µM
[5] = second compound 0.0316 µM, first compound 3.16 µM
[6] = second compound 0.0316 µM, first compound 10 µM
[7] = second compound 0.1 µM, first compound 0.0316 µM
[8] = second compound 0.1 µM, first compound 0.1 µM
[9] = second compound 0.1 µM, first compound 0.316 µM
[10] = second compound 0.1 µM, first compound 1 µM
[11] = second compound 0.1 µM, first compound 3.16 µM
[12] = second compound 0.1 µM, first compound 10 µM
[13] = second compound 0.316 µM, first compound 0.0316 µM
[14] = second compound 0.316 µM, first compound 0.1 µM
[15] = second compound 0.316 µM, first compound 0.316 µM
[16] = second compound 0.316 µM, first compound 1 µM
[17] = second compound 0.316 µM, first compound 3.16 µM
[18] = second compound 0.316 µM, first compound 10 µM
[19] = second compound 1 µM, first compound 0.0316 µM
[20] = second compound 1 µM, first compound 0.1 µM
[21] = second compound 1 µM, first compound 0.316 µM
[22] = second compound 1 µM, first compound 1 µM
[23] = second compound 1 µM, first compound 3.16 µM
[24] = second compound 1 µM, first compound 10 µM
[25] = second compound 3.16 µM, first compound 0.0316 µM
[26] = second compound 3.16 µM, first compound 0.1 µM
[27] = second compound 3.16 µM, first compound 0.316 µM
[28] = second compound 3.16 µM, first compound 1 µM
[29] = second compound 3.16 µM, first compound 3.16 µM
[30] = second compound 3.16 µM, first compound 10 µM
[31] = second compound 10 µM, first compound 0.0316 µM
[32] = second compound 10 µM, first compound 0.1 µM
[33] = second compound 10 µM, first compound 0.316 µM
[34] = second compound 10 µM, first compound 1 µM
[35] = second compound 10 µM, first compound 3.16 µM
[36] = second compound 10 µM, first compound 10 µM
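Also: spheroids exposed to drugs for 7 days before viability reading.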
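For viability, T/C in this document: 100% = DMSO vehicle control viability.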

O=C(NO)c1cnc(N2CCN(S(=O)(=O)c3ccc4ccccc4c3)CC2)nc1 + Cc1cnc(CNC(=O)c2c(=O)c3ccc(N4CCCN(C)CC4)nc3n3c2sc2ccccc23)cn1
IC50 (second compound 0.0316 µM): 111 nM
IC50 (second compound 0.1 µM): 102 nM
IC50 (second compound 0.316 µM): 110 nM
IC50 (second compound 1 µM): 104 nM
IC50 (second compound 3.16 µM): < 31.6 nM
IC50 (second compound 10 µM): < 31.6 nM
viability, T/C [1]: 74.7%
viability, T/C [2]: 53.5%
viability, T/C [3]: 13%
viability, T/C [4]: 0.6%
viability, T/C [5]: 0.3%
viability, T/C [6]: 0.28%
viability, T/C [7]: 71.5%
viability, T/C [8]: 50.3%
viability, T/C [9]: 17.4%
viability, T/C [10]: 0.78%
viability, T/C [11]: 0.32%
viability, T/C [12]: 0.29%
viability, T/C [13]: 66.5%
viability, T/C [14]: 52.4%
viability, T/C [15]: 19.1%
viability, T/C [16]: 0.46%
viability, T/C [17]: 0.21%
viability, T/C [18]: 0.18%
viability, T/C [19]: 53.9%
viability, T/C [20]: 50.6%
viability, T/C [21]: 19.6%
viability, T/C [22]: 0.17%
viability, T/C [23]: 0.77%
viability, T/C [24]: 1.29%
viability, T/C [25]: 48.6%
viability, T/C [26]: 42.5%
viability, T/C [27]: 16.1%
viability, T/C [28]: 0.13%
viability, T/C [29]: 0.4%
viability, T/C [30]: 0.75%
viability, T/C [31]: 23.6%
viability, T/C [32]: 13.2%
viability, T/C [33]: 0.25%
viability, T/C [34]: 0.16%
viability, T/C [35]: 0.89%
viability, T/C [36]: 0.27%

C#Cc1c(F)ccc2cc(O)cc(-c3ncc4c(N5CC6CCC(C5)N6)nc(OCC56CCCN5CC(F)C6)nc4c3F)c12 (stereo not given) + Cc1cnc(CNC(=O)c2c(=O)c3ccc(N4CCCN(C)CC4)nc3n3c2sc2ccccc23)cn1
IC50 (second compound 0.0316 µM): > 10000 nM
IC50 (second compound 0.1 µM): > 10000 nM
IC50 (second compound 0.316 µM): > 10000 nM
IC50 (second compound 1 µM): > 10000 nM
IC50 (second compound 3.16 µM): > 10000 nM
IC50 (second compound 10 µM): < 31.6 nM
viability, T/C [1]: 93.2%
viability, T/C [2]: 94.4%
viability, T/C [3]: 101%
viability, T/C [4]: 88%
viability, T/C [5]: 98.5%
viability, T/C [6]: 90.7%
viability, T/C [7]: 92.9%
viability, T/C [8]: 74.9%
viability, T/C [9]: 76.7%
viability, T/C [10]: 93.5%
viability, T/C [11]: 90.8%
viability, T/C [12]: 82.9%
viability, T/C [13]: 72.5%
viability, T/C [14]: 74.6%
viability, T/C [15]: 70.4%
viability, T/C [16]: 93.3%
viability, T/C [17]: 91.8%
viability, T/C [18]: 66.7%
viability, T/C [19]: 60.7%
viability, T/C [20]: 60.8%
viability, T/C [21]: 61.4%
viability, T/C [22]: 66.3%
viability, T/C [23]: 67.4%
viability, T/C [24]: 52.5%
viability, T/C [25]: 56.4%
viability, T/C [26]: 49.2%
viability, T/C [27]: 49.8%
viability, T/C [28]: 57%
viability, T/C [29]: 50.9%
viability, T/C [30]: 54%
viability, T/C [31]: 36.3%
viability, T/C [32]: 14.9%
viability, T/C [33]: 39.6%
viability, T/C [34]: 40.7%
viability, T/C [35]: 36.9%
viability, T/C [36]: 0.57%

Cc1cccc(N(C)C(=O)C2C(O)CCN2c2nc(C)cc(C(F)(F)F)c2C#N)c1 (stereo not given) + CN(C)c1ccc(Nc2c3ccc(NC(=O)CCN4CCCC4)cc3nc3cc(NC(=O)CCN4CCCC4)ccc23)cc1
IC50 (second compound 0.0316 µM): > 10000 nM
IC50 (second compound 0.1 µM): > 10000 nM
IC50 (second compound 0.316 µM): > 10000 nM
IC50 (second compound 1 µM): > 10000 nM
IC50 (second compound 3.16 µM): > 10000 nM
IC50 (second compound 10 µM): > 10000 nM
viability, T/C [1]: 108%
viability, T/C [2]: 99%
viability, T/C [3]: 89.8%
viability, T/C [4]: 94.1%
viability, T/C [5]: 101%
viability, T/C [6]: 101%
viability, T/C [7]: 118%
viability, T/C [8]: 95.7%
viability, T/C [9]: 91.6%
viability, T/C [10]: 109%
viability, T/C [11]: 95.5%
viability, T/C [12]: 109%
viability, T/C [13]: 102%
viability, T/C [14]: 102%
viability, T/C [15]: 100%
viability, T/C [16]: 115%
viability, T/C [17]: 113%
viability, T/C [18]: 102%
viability, T/C [19]: 90.6%
viability, T/C [20]: 103%
viability, T/C [21]: 105%
viability, T/C [22]: 105%
viability, T/C [23]: 97.6%
viability, T/C [24]: 88%
viability, T/C [25]: 88%
viability, T/C [26]: 98.1%
viability, T/C [27]: 95.8%
viability, T/C [28]: 91%
viability, T/C [29]: 85.9%
viability, T/C [30]: 87.7%
viability, T/C [31]: 62.7%
viability, T/C [32]: 63.6%
viability, T/C [33]: 72.9%
viability, T/C [34]: 63.7%
viability, T/C [35]: 58.8%
viability, T/C [36]: 47.8%

CC1COCCN1c1cc(C2(O)CC3CCC(C2)O3)c2cnn(-c3ccn[nH]3)c2n1 (stereo not given) + Cc1[nH]c2ccc(F)cc2c1-c1nc2c3cccnc3c3ncccc3c2[nH]1
IC50 (second compound 0.0316 µM): 280 nM
IC50 (second compound 0.1 µM): 267 nM
IC50 (second compound 0.316 µM): 207 nM
IC50 (second compound 1 µM): 327 nM
IC50 (second compound 3.16 µM): 233 nM
IC50 (second compound 10 µM): 131 nM
viability, T/C [1]: 68.8%
viability, T/C [2]: 56.8%
viability, T/C [3]: 52.6%
viability, T/C [4]: 32.8%
viability, T/C [5]: 23%
viability, T/C [6]: 12.4%
viability, T/C [7]: 77.5%
viability, T/C [8]: 60.1%
viability, T/C [9]: 48.9%
viability, T/C [10]: 35.1%
viability, T/C [11]: 25.6%
viability, T/C [12]: 14.6%
viability, T/C [13]: 64.8%
viability, T/C [14]: 54.1%
viability, T/C [15]: 48.8%
viability, T/C [16]: 34.2%
viability, T/C [17]: 25.3%
viability, T/C [18]: 13.1%
viability, T/C [19]: 72.4%
viability, T/C [20]: 62.7%
viability, T/C [21]: 52%
viability, T/C [22]: 33.8%
viability, T/C [23]: 25.6%
viability, T/C [24]: 16.1%
viability, T/C [25]: 63.9%
viability, T/C [26]: 59.4%
viability, T/C [27]: 47%
viability, T/C [28]: 32.2%
viability, T/C [29]: 26%
viability, T/C [30]: 14.9%
viability, T/C [31]: 54.4%
viability, T/C [32]: 55%
viability, T/C [33]: 42.4%
viability, T/C [34]: 27.6%
viability, T/C [35]: 25.3%
viability, T/C [36]: 14.2%

C=CCn1c(=O)c2cnc(Nc3ccc(N4CCN(C)CC4)cc3)nc2n1-c1cccc(C(C)(C)O)n1 + Cc1cnc(CNC(=O)c2c(=O)c3ccc(N4CCCN(C)CC4)nc3n3c2sc2ccccc23)cn1
IC50 (second compound 0.0316 µM): 769 nM
IC50 (second compound 0.1 µM): 481 nM
IC50 (second compound 0.316 µM): 343 nM
IC50 (second compound 1 µM): 592 nM
IC50 (second compound 3.16 µM): 196 nM
IC50 (second compound 10 µM): < 31.6 nM
viability, T/C [1]: 88.4%
viability, T/C [2]: 79.2%
viability, T/C [3]: 61.2%
viability, T/C [4]: 48.8%
viability, T/C [5]: 32.6%
viability, T/C [6]: 31.4%
viability, T/C [7]: 78.3%
viability, T/C [8]: 72.9%
viability, T/C [9]: 55.3%
viability, T/C [10]: 40.8%
viability, T/C [11]: 38.3%
viability, T/C [12]: 40.8%
viability, T/C [13]: 84.8%
viability, T/C [14]: 62.2%
viability, T/C [15]: 50.7%
viability, T/C [16]: 40.9%
viability, T/C [17]: 38.5%
viability, T/C [18]: 26.8%
viability, T/C [19]: 62.9%
viability, T/C [20]: 60%
viability, T/C [21]: 58.4%
viability, T/C [22]: 41.9%
viability, T/C [23]: 36.5%
viability, T/C [24]: 24.3%
viability, T/C [25]: 50.6%
viability, T/C [26]: 54.3%
viability, T/C [27]: 49.1%
viability, T/C [28]: 39.1%
viability, T/C [29]: 32.7%
viability, T/C [30]: 25.6%
viability, T/C [31]: 43.4%
viability, T/C [32]: 12.9%
viability, T/C [33]: 36.4%
viability, T/C [34]: 33.8%
viability, T/C [35]: 20.8%
viability, T/C [36]: 0.23%
